Test results published in patent US7112318B2, “Non-invasive diagnostic imaging technology for mitochondria dysfunction using radiolabeled lipophilic salts” (The Johns Hopkins University, priority 2002, dated 2006).

Columns and labels:
[1] = Stability in plasma after injection of the agent into mice (column-switch HPLC radiochromatography); type: in vivo
Protocol: Samples of mouse plasma were obtained from heparinized whole bloodcollected 5, 15 and 30 min p.i. of the tracer. To eliminate binding to plasma proteins, the plasma was added to solid urea to give a final concentration of 8M urea. The plasma-urea was loaded into a column switch HPLC system (Hilton 2000), in which the plasma passes through a small capture column (Oasis Sorbent, Waters Corp.), which retains lipophilic solutes, while polar species fail to bind and are detected as they pass through a positron detector. After four minutes, the capture column is free of plasma proteins and polar species. Then, the contents of the capture column was swept onto an analytical column (Prodigy ODS-3, Phenomenex) by 40% acetonitrile, 60% triethylamine acetate buffer pH 4.1 at 1 mL/min, where separation of the parent compound and lipophilic metabolites occurs. The effluent from the analytical column also passes through the positron flow detector. The proportion of each species is determined from the area under each chromatographic peak. Results: Radiochemical purity of the 18F-labeled FBnTP was more than 95%. […] FIG. 1 depicts the chromatogram of plasma collected 30 min p.i., and the parental compound incubated for a similar time period (30 min) in buffered saline. Plasma activity and parental compound peaked at same time (˜6 min).

[2] = Stability of fluorination: total bone uptake after i.v. injection; type: in vivo; details: mice, 5 and 30 min p.i., compared to mice injected with F-18 only
Protocol: Methods: Mice were injected via the tail vein with 25 μCi of F-18-PhC; 5 and 30 min p.i., the left or right femur bone was removed, and bone radioactivity together with standard (1:100 of injected dose) were counted in a gamma counter. A parallel group of mice was injected with free fluorides (F-18). Three mice of each group were studied at each time point. Radioactivity is represented as percentage of injected dosed (% ID) and total bone uptake was calculated as activity in femur bone×20.

[3] = tested on: Human lung carcinoma H549 cells; assay: Mitochondria membrane potential (MMP)-dependent cellular uptake with CCCP; type: cell-based; details: 30 min
Protocol: The extent of MMP-dependent cellular uptake of F-18-FBnTP was assessed using CCCP, a known protonophore that selectively abolishes the MMP.
Methods: Human lung carcinoma H549 cells ([…]) were incubated with 0.1 μCi/ml F-18-FBnTP for 30 min. Samples of the suspension (1 mL) were transferred to Eppendorf s vials and placed in a 370C bath. Varying concentrations (30, 60, 90, 120 μM) of CCCP were added to the suspension. After 30 min of incubation with CCCP, the Eppendorf vials were centrifuged for 1 min, and activity in pellet and supernatant was immediately counted.

[4] = tested on: orthotopic NMU mammary tumor; assay: Tracer uptake in NMU mammary tumor versus healthy gland and FCA inflammation; type: in vivo; details: NMU-bearing rats, 60 min after i.v., normalized to muscle
From the text: The carcinogen nitrosomethyl urea (NMU) induces carcinoma tumors solely in the mammary gland of female rats. Therefore, the orthotopic NMU mammary tumor is an excellent model for evaluating tracer tumor selectivity by contrasting radioactivity accumulating in mammary gland infested with carcinoma cells and healthy mammary gland. Freund Complete Adjuvant (FCA) is a well_studied inflammation agent in rats Induction of FCA inflammation in NMU-bearing rats allows for direct quantitation of tracer capability to differentiate carcinoma from inflammation.
(§1) 0.1 ml of nitrosomethyl urea (NUM) was introduced i.p in female rats (150 g). When tumor reached an approximate size of 1 to 1.5 cm, FCA was injected (0.15 ml) to the hind limb footpad. Uptake assays were carried out 3 days thereafter. F-18-FBnTP (0.25 mCi) was injected via tail vein. Sixty minutes later tumor, inflamed tissue and healthy muscle tissue of the opposite limb (control) were collected on ice, weighed and counted in a gamma counter together with standards.

[5] = tested on: FCA-induced inflammation; assay: Accumulation in FCA-induced inflammation tissue and healthy muscle; type: in vivo; details: rats, 3 days after administration of FCA
Protocol: as §1
The accumulation of the novel F-18-phosphonium cations, F-18-FBnTP and F-18-fluoropropyl triphenyl phosphonium (F-18-FPTP) in comparison with F-18-FDG in FCA-induced inflammation and healthy tissue is presented in Table 2. Induction of inflammation and activity counting were carried out as described above.

[6] = tested on: human lung carcinoma A549 cells; assay: Detection of response of lung carcinoma tumor to taxeter in vivo; details: A549 tumor in nude mice, 48 hours after i.v. taxeter, 60 min after tracer, normalized to muscle
Protocol: Methods: 2×10^6 human lung carcinoma A549 cells were inoculated s.q. in 12 nude mice. When tumor size reached an approximate size of 5—10 mm, six mice were injected i.v. with taxeter and six mice served as control. Uptake assays were carried out 48 hours thereafter. 25 μCi of F-18-FBnTP were injected i.v., and tumor and muscle tissue was dissected after 60 min.

[7] = tested on: prostate carcinoma; assay: Tumor selectivity in orthotopic model of prostate carcinoma; type: in vivo; details: nude mice, normalized to muscle
Protocol: Methods: 2×10^6 cells were injected, under anesthesia, into the prostate epithelial tissue of nude mice. When tumor reached an approximate size of 5 mm, uptake assays were performed as described above. Tumor selectivity of F-18-FBnTP and F-18-FDG was compared (3 mice in each group)

[8] = tested on: myocardium; assay: F-18-FBnTP uptake kinetics in the myocardium (dog PET); type: in vivo, Mongrel dogs
Protocol: Methods: Mongrel dogs (BW=35 kg) were injected with 3–4 mCi of F-18-FBnTP. Images were acquired on a GE 4096+ scanner (15 slices, 6.5 mm slice thickness). PET scans of increasing duration (15 sec to 20 min) were acquired over a total time of 85 min post-injection. Arterial blood samples (0.5 ml in volume) were collected every few seconds for the first 3 minutes and at gradually increasing intervals (1 to 10 min) for the remaining time of the imaging study. The vascular and myocardial kinetics of F-18-FBnTP was analyzed using the ROI method.

[9] = tested on: myocardium; assay: F-18-FBnTP myocardial accumulation in heart failure (pacing 210 bpm, 4 weeks, PET); type: in vivo, Mongrel dog
Protocol: Pacing of the mongrel dog heart at high rate (210 bpm) for a four weeks is a well-established model of heart failure. The advantage of this model is that the cardiomayopathy solely involve apoptosis without stenosis of coronary artery or related ischemia. Therefore, in this model the affect of apoptosis on FBnTP uptake can be dissected.
Methods: Preparation of dog and data acquisition was performed as described above. Mongrel dog was installed with a pacemaker in the rib case and underwent FBnTP PET scan (presented above). Following the baseline scan, the dog_s heart was paced at a rate of 210 bpm for 4 weeks and a second scan was acquired.
Quantitation of FBnTP in the myocardium was performed using region of interest placed on co-registered myocardial images, whose activity was normalized to the injected dose, before and after pacing. An example for ROI placement is illustrated in FIG. 18.

[10] = Biodistribution in mice 60 min after i.v. injection; details: 60 min after iv. injection
Protocol: Three to five mice were used for the biodistribution study of each tracer. Nonanesthetized animals were injected i.v. with tracer solution (FBnTP or FPTP, TPMP 25 μCi; MIBI 40 μCi; TPP 2 μCi, all in a volume of 0.2 mL saline) then killed by neck dislocation at 60 min after injection. The organs and tissues of interest were removed and counted by a radioactivity counter along with standards (1:1000) (LKB Wallac, 1282 Compugamma CS).

In the case of `[18F]c1ccc(C[P+](c2ccccc2)(c2ccccc2)c2ccccc2)cc1` [Example F-18-FBnTP, F-18-fluorobenzyl triphenyl phosphonium], the “stable after intravenous injection in vivo” value ([1]; mice, plasma radiochromatograms) is reported as “more than 30 min”, the “single radio-peak in plasma, share of total activity” value ([1]; mouse plasma after i.v. injection, no other peak observed) is reported as 97% and the total bone uptake [2] is reported as “minimal bone uptake”. The total bone uptake ([2]; listed as F-18-PhC) was “marginal bone uptake”, the “cellular uptake in the presence of varying concentrations of CCCP” value ([3]; CCCP 30, 60, 90, 120 μM) was “dose-dependent decrease” and the “MMP-dependent share of cellular uptake” value ([3]; CCCP 30-120 μM) was 86%. The “uptake in tumor relative to healthy gland” value [4] was 4 times, the “uptake in tumor relative to inflammation” value ([4]; FCA inflammation 3 days) was 3 times and the Inf/Control [5] was 0.42 ± 0.40. For the same compound, the “accumulation, Blood” value [5] was 0.10 ± 0.01 % ID/g tissue, the “accumulation, Control (healthy muscle)” value [5] was 0.76 ± 0.21 % ID/g tissue and the “accumulation, Inflammation” value [5] was 0.27 ± 0.22 % ID/g tissue. The “decrease in accumulation in tumor after taxeter, compared to non-treated mice” value [6] was about 50%, the “uptake ratio of malignant-to-normal prostate tissue” value [7] was 2.5 and the “accumulation in the myocardium, time to equilibrium” value ([8]; dog PET, 85 min scan) was “reached equilibrium within a few minutes”. For the same compound, the “washout from the blood pool” value ([8]; dog, arterial blood samples) was “rapid washout”, the “Ratio P/B” value ([9]; Slices 36–37, ROI1) was 0.62 and the “Ratio P/B” value ([9]; Slices 36–37, ROI2) was 0.91. The “Ratio P/B” value ([9]; Slices 36–37, ROI3) was 0.85, the “Ratio P/B” value ([9]; Slices 46–49, ROI1) was 0.56 and the “myocardial uptake, Baseline” value ([9]; Slices 46–49, ROI1, average activity over 36 to 85 min per slice) was “*108.62 % of injected dose”. For the same compound, the “Ratio P/B” value ([9]; Slices 46–49, ROI2) was 0.76, the “Ratio P/B” value ([9]; Slices 46–49, ROI3) was 0.82 and the “decrease in uptake in the inferior wall after pacing” value ([9]; dog, 4-wks pacing at 210 bpm versus baseline) was 40–60%. For the same compound, the “biodistribution, blood” value [10] was 0.02 ± 0.00 % ID/g, the “biodistribution, brain” value [10] was 0.07 ± 0.01 % ID/g and the “biodistribution, heart” value [10] was 35.39 ± 5.02 % ID/g. For the same compound, the “biodistribution, kidney” value [10] was 4.89 ± 0.88 % ID/g, the “biodistribution, liver” value [10] was 3.00 ± 1.12 % ID/g and the “biodistribution, lung” value [10] was 7.38 ± 1.55 % ID/g. For the same compound, the “biodistribution, muscle” value [10] was 4.31 ± 1.30 % ID/g and the “biodistribution, spleen” value [10] was 1.79 ± 0.57 % ID/g.
